Earlier results as cited in US20110262453A1, “Markers for Assessing the Susceptibility of Cancer to IGF-1R Treatment” (priority 2008, published 2011).
One block for each compound: values may come before it.

Legend:
[1] = molecular target: IGF-1R over IR (Homo sapiens, UniProt P08069)
[2] = tested on: rodents
[3] = tested on: xenografted and allografted mice
[4] = molecular target: IGF-1R (Homo sapiens, UniProt P08069)
[5] = tested on: cultured IGF-1R-positive tumor cells

Sequence of IGF-1R over IR (P08069 31-1367): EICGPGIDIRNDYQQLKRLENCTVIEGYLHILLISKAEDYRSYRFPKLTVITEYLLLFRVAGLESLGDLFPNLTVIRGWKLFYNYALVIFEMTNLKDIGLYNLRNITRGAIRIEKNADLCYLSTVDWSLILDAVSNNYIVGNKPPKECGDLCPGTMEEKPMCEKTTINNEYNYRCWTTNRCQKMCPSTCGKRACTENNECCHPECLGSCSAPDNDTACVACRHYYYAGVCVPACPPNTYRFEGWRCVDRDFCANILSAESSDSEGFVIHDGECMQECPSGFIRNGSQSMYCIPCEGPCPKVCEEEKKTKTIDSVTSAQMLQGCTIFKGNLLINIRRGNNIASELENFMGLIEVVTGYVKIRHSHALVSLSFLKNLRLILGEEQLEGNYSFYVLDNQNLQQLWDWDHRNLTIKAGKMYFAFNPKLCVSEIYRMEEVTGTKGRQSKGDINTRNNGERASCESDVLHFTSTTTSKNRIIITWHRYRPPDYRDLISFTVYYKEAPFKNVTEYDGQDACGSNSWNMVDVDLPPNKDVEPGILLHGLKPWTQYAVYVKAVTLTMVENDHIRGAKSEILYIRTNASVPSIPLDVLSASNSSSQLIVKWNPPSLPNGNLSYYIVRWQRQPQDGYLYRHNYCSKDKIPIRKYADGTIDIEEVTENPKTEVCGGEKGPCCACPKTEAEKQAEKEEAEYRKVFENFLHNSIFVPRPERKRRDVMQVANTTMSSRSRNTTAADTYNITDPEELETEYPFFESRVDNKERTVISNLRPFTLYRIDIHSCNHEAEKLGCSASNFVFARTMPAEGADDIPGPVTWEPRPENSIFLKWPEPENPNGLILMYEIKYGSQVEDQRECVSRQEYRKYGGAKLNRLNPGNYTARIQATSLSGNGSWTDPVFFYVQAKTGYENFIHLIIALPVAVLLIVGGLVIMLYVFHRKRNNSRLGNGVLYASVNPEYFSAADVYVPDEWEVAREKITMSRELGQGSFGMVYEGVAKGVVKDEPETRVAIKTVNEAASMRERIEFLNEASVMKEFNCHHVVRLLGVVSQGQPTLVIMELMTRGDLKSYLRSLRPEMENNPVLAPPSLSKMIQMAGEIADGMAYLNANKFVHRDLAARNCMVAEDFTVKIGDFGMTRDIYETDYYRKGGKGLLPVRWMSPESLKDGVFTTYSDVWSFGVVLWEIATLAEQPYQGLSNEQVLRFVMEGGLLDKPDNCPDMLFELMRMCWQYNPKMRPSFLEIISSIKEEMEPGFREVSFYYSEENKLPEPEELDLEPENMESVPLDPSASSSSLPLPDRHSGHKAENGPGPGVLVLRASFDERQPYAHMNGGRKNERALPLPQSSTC
Sequence of IGF-1R (P08069 31-1367): as above

SMILES: CC(C)(C)c1cc(C=C(C#N)C#N)cc(Br)c1O [AG1024]
- selectivity towards IGF-1R over IR (in words) [1]: some selectivity

SMILES: COc1cc([C@@H]2c3cc4c(cc3[C@H](O)[C@H]3COC(=O)[C@@H]23)OCO4)cc(OC)c1OC [PPP, picropodophyllin]
- LD50 [2]: > 500 mg/kg
- tumor regression [3]: complete tumor regression
- IGF-1R activity [4]: efficiently blocked IGF-1R activity
- apoptosis [5]: induced apoptosis
- pAkt and phosphorylated extracellular signal regulated kinase 1 and 2 (pErk1/2) [5]: reduced

- selectivity towards IGF-1R over IR (in words) [1]: some selectivity
SMILES: N#C/C(=C\c1ccc(O)c(O)c1)C(=O)c1ccc(O)c(O)c1 [AG538]

- selectivity towards IGF-1R over IR [1]: 100 fold
SMILES: Nc1ncnc2c1c(-c1cccc(OCc3ccccc3)c1)cn2C1CC(CN2CCC2)C1 (centres unmarked) [NVP-AEW541]
